Experimental data as given in PubChem BioAssay (NCI).
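48-hour exposure; five concentrations; linearly interpolated endpoints. Here, GI50 denotes the concentration required for 50% inhibition of growth. TGI: total growth inhibition.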

Legend:
Test in all cases: inhibition of tumour cell growth, NCI panel, 48 h
MCF7 breast = system: MCF7 breast
NCI-H522 lung = system: NCI-H522 lung
A498 renal = system: A498 renal
SR leukemia = system: SR leukemia
SF-268 CNS = system: SF-268 CNS
NCI-H460 lung = system: NCI-H460 lung
OVCAR-5 ovarian = system: OVCAR-5 ovarian
SNB-75 CNS = system: SNB-75 CNS
OVCAR-3 ovarian = system: OVCAR-3 ovarian
HS 578T breast = system: HS 578T breast

| SMILES | GI50 (MCF7 breast) [µM] | TGI (MCF7 breast) [µM] | GI50 (NCI-H522 lung) [µM] | GI50 (A498 renal) [µM] | TGI (A498 renal) [µM] | GI50 (SR leukemia) [µM] | TGI (SR leukemia) [µM] | GI50 (SF-268 CNS) [µM] | TGI (SF-268 CNS) [µM] | GI50 (NCI-H460 lung) [µM] | TGI (NCI-H460 lung) [µM] | GI50 (OVCAR-5 ovarian) [µM] | TGI (OVCAR-5 ovarian) [µM] | GI50 (SNB-75 CNS) [µM] | GI50 (OVCAR-3 ovarian) [µM] | TGI (OVCAR-3 ovarian) [µM] | GI50 (HS 578T breast) [µM] | TGI (HS 578T breast) [µM] | TGI (NCI-H522 lung) [µM] | TGI (SNB-75 CNS) [µM] |
| --- | --- | --- | --- | --- | --- | --- | --- | --- | --- | --- | --- | --- | --- | --- | --- | --- | --- | --- | --- | --- |
| Cc1nc2sc(C(=O)Nc3cccc(Cl)c3C)c(N)c2cc1C(=O)c1ccccc1 | 0.168 | > 50 | 0.205 | 0.124 | 1.64 | 0.131 | 16.9 | 0.375 | > 50 | 0.198 | 10.3 | 1.26 | > 50 | 0.121 | 0.176 | 1.37 | 0.194 | > 50 | – | – |
| CC#CC(=O)N[C@H]1CCCN(c2c(F)cc(C(N)=O)c3[nH]c(C)c(C)c23)C1 | 17.3 | 36 | 14.4 | 12 | 26.6 | 17.6 | > 100 | 17.4 | 45.1 | 18.1 | 33.4 | 23 | 88.5 | 7.66 | 21.9 | 63.7 | 16.4 | 83.3 | 34.1 | 21.3 |
| O=c1cc(-c2ccccc2)nc2cc(-c3ccco3)[nH]n12 | 0.554 | > 100 | 6.77 | 3.6 | 28.6 | 3.14 | 82.5 | 14.9 | > 100 | 4.49 | 20.6 | 42.2 | > 100 | 12.5 | 10.8 | 37.1 | 7.1 | 37.3 | 40.7 | > 100 |
| CNC(=O)c1c(NC(=O)c2ccc(C(C)C)cc2)sc2c1CCC(=O)C2 | 0.428 | 5.32 | 0.149 | 0.715 | 3.78 | 0.273 | 4.45 | 0.443 | 2.41 | 0.58 | 2.82 | 0.496 | 1.93 | 1.05 | 0.423 | 1.57 | 0.357 | 2.34 | 1.04 | 3.53 |
| O=C(Nc1ccc(Cl)cc1F)c1cc(Cl)ccc1O | 0.442 | 10.2 | 0.337 | 0.26 | 0.924 | 2.2 | > 49.3 | 0.52 | > 27.6 | 0.44 | – | 2.74 | > 100 | 0.456 | 0.412 | > 20.5 | 0.341 | 3.65 | – | 3.77 |
